Data published in patent publication US20100075907A1, “NEUROMEDIN U RECEPTOR AGONISTS AND USES THEREOF” (priority 2006, published 2010).
Residues, ends and D or L forms follow the SMILES beside them. No end group written: not given here. *: point of attachment. Succinimide(1-Et,3-yl) = CCN1C(=O)CC(*)C1=O; Palmitoyl = CCCCCCCCCCCCCCCC(=O)*

Key:
Format in all cases: cell-based
Parameters in all cases: expressed in transfected cells; host or cells: FLP-In CHO or HEK-293 FLP-In cells (pcDNA5)
rat NMUR1-ATG = biological target: T1, rat NMUR1-ATG (Rattus norvegicus, UniProt Q9JJI5); experiment: FLIPR calcium mobilization assay, rat NMUR1-ATG; details: for % Activity: maximum response at 1 μM compared to hNMU-25; for % Activity / EC50: rat NMUR1-ATG; for EC50: FLIPR
T1 sequence (Q9JJI5 1-425): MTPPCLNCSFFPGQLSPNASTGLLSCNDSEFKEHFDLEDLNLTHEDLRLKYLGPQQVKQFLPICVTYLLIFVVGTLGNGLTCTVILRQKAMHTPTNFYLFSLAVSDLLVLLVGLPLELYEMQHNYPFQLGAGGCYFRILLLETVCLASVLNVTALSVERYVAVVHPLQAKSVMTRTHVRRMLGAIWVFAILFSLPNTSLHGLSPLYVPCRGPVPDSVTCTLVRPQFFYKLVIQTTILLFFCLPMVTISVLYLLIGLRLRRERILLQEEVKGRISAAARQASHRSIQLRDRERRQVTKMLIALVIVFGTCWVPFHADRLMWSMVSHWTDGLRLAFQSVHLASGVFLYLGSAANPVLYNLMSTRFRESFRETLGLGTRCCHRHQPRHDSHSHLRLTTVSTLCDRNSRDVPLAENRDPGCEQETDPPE
Description: (§1) Human, mouse or rat cDNAs encoding NMUR1 or NMUR2 (as described in Howard et al. Nature 406: 70-74 (2000) were subcloned in pcDNA5 (Invitrogen) and transfected into FLP-In CHO cells and HEK-293 FLP-In cells purchased from Invitrogen (Carlsbad, Calif.) using lipofectamine (Invitrogen). The Flp-In system allows integration and expression of a particular gene of interest at a specific genomic location utilizing the Flp recombinase from yeast. The transfected cells were selected by growth in medium containing 200 μg/mL hygromycin (Invitrogen). Populations were frozen at early passage numbers, and these stocks were used for further studies. Stable clones that expressed the mRNAs were identified functionally by FLIPR as well as by RT-PCR. […] Two different rodent NMUR1 cell lines were thus generated: one with the codon as predicted from the genomic databases and another cell line with an engineered methionine (ATG) as the start codon. Additionally, stable cell lines expressing the human receptors were generated in HEK-293/aeq17 cells which stably express the aequorin gene under the CMV promoter. The human NMUR2 cDNA was cloned into pcDNA3.1 and human NMUR1 was subcloned into pIRES-puro (Clontech, Mountain View, Calif.), after transfection cells were selected in media containing G418 and either hygromycin (NMUR2) or puromycin (NMUR1).
(§2) The NMU receptors signal primarily through Gαq/11 proteins; therefore calcium mobilization assays can be utilized for functional activity.
(§3) Stable cell lines expressing human and or rodent NMUR1 or human NMUR2 receptors were plated at a density of 12,000 cells per well overnight on poly-lysine coated 384-well black-walled plates. The following day, the media was removed from the plates and the cells were subsequently loaded with Fluo-3 (Molecular Probes), a calcium sensitive dye, diluted in FLIPR buffer (1× Hank's buffered saline containing 20 mM HEPES, 0.1% BSA, 2.5 mM probenecid (Sigma) and 1.6 mM TR40). All reagents are from Invitrogen unless otherwise noted. Peptide stocks were resuspended in DMSO at a stock concentration of 2 mM and diluted in FLIPR buffer on the day of the experiment to a 4 μM working stock solution.
(§4) After a 90 minute incubation at room-temperature, cell plates were loaded onto a FLIPR (Molecular Devices) to monitor cellular fluorescence (excitation=488 nm; emission=540 nm) before and after compound/peptide addition. Eight to twelve point dose responses were tested on NMUR-expressing cell lines using FLIPR with 1 μM peptide as the highest dose. The response after peptide addition was taken as the maximum fluorescence units minus the fluorescence immediately prior to stimulation for each well. EC50 values were calculated using GraphPad Prism (San Diego, Calif.) software.
(§5) In vitro responses of Neuromedin U receptor agonists (NMU1 to NMU25) in the FLIPR assay for human (Table 3), mouse (Table 4) and rat (Table 5) NMUR1 and NMUR2. EC50s are reported in nM values. Percent activity refers to the maximum response at 1 μM compared to the hNMU-25 response at the same concentration. NT=not tested.

mouse NMUR1-ATG = biological target: T2, mouse NMUR1-ATG (Mus musculus, UniProt O55040); experiment: FLIPR calcium mobilization assay, mouse NMUR1-ATG; details: for % Activity: maximum response at 1 μM compared to hNMU-25; for % Activity / EC50: mouse NMUR1-ATG; for EC50: FLIPR
T2 sequence (O55040 1-428): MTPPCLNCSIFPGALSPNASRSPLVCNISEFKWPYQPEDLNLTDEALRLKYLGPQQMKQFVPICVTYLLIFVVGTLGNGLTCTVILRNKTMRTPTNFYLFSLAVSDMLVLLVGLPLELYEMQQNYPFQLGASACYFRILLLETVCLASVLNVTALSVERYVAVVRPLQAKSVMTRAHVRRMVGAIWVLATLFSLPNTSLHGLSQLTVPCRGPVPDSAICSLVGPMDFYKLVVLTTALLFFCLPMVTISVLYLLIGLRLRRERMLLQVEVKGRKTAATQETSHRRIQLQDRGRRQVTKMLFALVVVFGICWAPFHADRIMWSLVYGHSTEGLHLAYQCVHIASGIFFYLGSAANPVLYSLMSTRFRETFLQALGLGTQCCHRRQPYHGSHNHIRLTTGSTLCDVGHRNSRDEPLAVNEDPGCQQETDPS
Description: as §1, §2, §3, §4, §5

mouse NMUR2 = mouse NMUR2 (Mus musculus, UniProt Q8BZ39); experiment: FLIPR calcium mobilization assay, mouse NMUR2; details: for % Activity: maximum response at 1 μM compared to hNMU-25; for % Activity / EC50: mouse NMUR2; for EC50: FLIPR
Chain of mouse NMUR2 (Q8BZ39 whole entry): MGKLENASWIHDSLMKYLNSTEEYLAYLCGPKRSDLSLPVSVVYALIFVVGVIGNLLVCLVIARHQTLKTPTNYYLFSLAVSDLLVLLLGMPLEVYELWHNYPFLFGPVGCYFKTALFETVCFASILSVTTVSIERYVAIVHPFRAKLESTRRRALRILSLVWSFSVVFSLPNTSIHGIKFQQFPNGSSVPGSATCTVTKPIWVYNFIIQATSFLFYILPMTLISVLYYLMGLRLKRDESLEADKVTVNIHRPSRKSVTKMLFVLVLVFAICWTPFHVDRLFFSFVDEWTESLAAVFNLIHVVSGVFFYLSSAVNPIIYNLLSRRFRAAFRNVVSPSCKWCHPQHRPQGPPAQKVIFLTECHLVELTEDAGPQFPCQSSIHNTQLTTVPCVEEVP
Description: as §1, §2, §3, §4, §5

Row | Compound | % Activity (rat NMUR1-ATG) | % Activity (mouse NMUR1-ATG) | % Activity (mouse NMUR2) | EC50 (rat NMUR1-ATG) | EC50 (mouse NMUR1-ATG) | EC50 (mouse NMUR2) | IC50 (rat NMUR1-ATG; functional data, rat R1-ATG) | IC50 (mouse NMUR1-ATG; functional data, mouse R1-ATG) | IC50 (mouse NMUR2; functional data, mouse R2)
1 | CCN1C(=O)CC(SC[C@H](NC(C)=O)C(=O)N[C@@H](CSC2CC(=O)N(CC)C2=O)C(=O)N[C@@H](Cc2ccccc2)C(=O)N[C@@H](CCCNC(=N)N)C(=O)N[C@H](C(=O)N[C@@H](CC(=O)O)C(=O)N[C@@H](CCC(=O)O)C(=O)N[C@@H](CCC(=O)O)C(=O)N[C@@H](Cc2ccccc2)C(=O)N[C@@H](CCC(N)=O)C(=O)N[C@@H](CO)C(=O)N2CCC[C@H]2C(=O)N[C@@H](Cc2ccccc2)C(=O)N[C@@H](C)C(=O)N[C@@H](CO)C(=O)N[C@@H](CCC(N)=O)C(=O)N[C@@H](CO)C(=O)N[C@@H](CCCNC(=N)N)C(=O)NCC(=O)N[C@@H](Cc2ccc(O)cc2)C(=O)N[C@@H](Cc2ccccc2)C(=O)N[C@@H](CC(C)C)C(=O)N[C@@H](Cc2ccccc2)C(=O)N[C@@H](CCCNC(=N)N)C(=O)N2CCC[C@H]2C(=O)N[C@@H](CCCNC(=N)N)C(=O)N[C@@H](CC(N)=O)C(N)=O)C(C)C)C1=O (stereo partly drawn) [NMU22] (Ac-C(Succinimide(1-Et,3-yl))C(Succinimide(1-Et,3-yl))FRVDEEFQSPFASQSRGYFLFRPRN-NH2) | 100% | 100% | 100% | – | – | – | – | – | –
2 | Ac-C2FRVDEEFQSPFASQSRGYFLFRPRN-CONH2 [NMU9] ({Ac-C(PEG 40 kDa)}-FRVDEEFQSPFASQSRGYFLFRPRN-NH2) [C2 = Cys(PEG)240 kDa from Nektar (mPEG2-MAL-40 k)] | – | 95.0% | – | 9.7 nM | 45.7 nM | 19 nM | – | – | –
3 | Ac-C4-C4-FRVDEEFQSPFASQSRGYFLFRPRN-CONH2 ({Ac-C(PEG 20 kDa)-C(PEG 20 kDa)}-FRVDEEFQSPFASQSRGYFLFRPRN-NH2) [NMU23, C4 = Cys(PEG)20 kDa] | 76.4% | – | – | 127 nM | 14 nM | 21.3 nM | – | – | –
4 | Ac-FRVDEEFQSPFASQSRPYFLFRPRN-NH2 [NMU5] | 100% | 100% | 100% | – | – | 1 nM | – | – | –
5 | GYFLFRPRN-NH2 [NMU3] | 100% | 100% | 100% | – | – | – | – | – | –
6 | H-FRVDEEFQSPFASQSRGYFLFRPRN-NH2 [hNMU-25, reference compound] | – | – | – | – | – | – | 1.3 nM | 0.9 nM | 0.2 nM
7 | Pam-C2FRVDEEFQSPFASQSRGYFLFRPRN-CONH2 ({Palmitoyl-C(PEG 40 kDa)}-FRVDEEFQSPFASQSRGYFLFRPRN-NH2) [NMU25, Pam = palmitoyl; C2 = Cys(PEG)240 kDa] | 99.6% | – | – | 20.1 nM | 10.2 nM | 18.8 nM | – | – | –

The next lines start with results.

Row | % Activity (rat NMUR1-ATG) | % Activity (mouse NMUR1-ATG) | % Activity (mouse NMUR2) | EC50 (rat NMUR1-ATG) | EC50 (mouse NMUR1-ATG) | EC50 (mouse NMUR2) | Compound | IC50 (rat NMUR1-ATG; functional data, rat R1-ATG) | IC50 (mouse NMUR1-ATG; functional data, mouse R1-ATG) | IC50 (mouse NMUR2; functional data, mouse R2)
8 | 100% | 100% | 100% | – | – | – | CCN1C(=O)CC(SC[C@H](NC(C)=O)C(=O)N[C@@H](Cc2ccccc2)C(=O)N[C@@H](CCC(N)=O)C(=O)N[C@@H](CO)C(=O)N2CCC[C@H]2C(=O)N[C@@H](Cc2ccccc2)C(=O)N[C@@H](C)C(=O)N[C@@H](CO)C(=O)N[C@@H](CCC(N)=O)C(=O)N[C@@H](CO)C(=O)N[C@@H](CCCNC(=N)N)C(=O)NCC(=O)N[C@@H](Cc2ccc(O)cc2)C(=O)N[C@@H](Cc2ccccc2)C(=O)N[C@@H](CC(C)C)C(=O)N[C@@H](Cc2ccccc2)C(=O)N[C@@H](CCCNC(=N)N)C(=O)N2CCC[C@H]2C(=O)N[C@@H](CCCNC(=N)N)C(=O)N[C@@H](CC(N)=O)C(N)=O)C1=O (stereo partly drawn) [NMU19] (Ac-C(Succinimide(1-Et,3-yl))FQSPFASQSRGYFLFRPRN-NH2) | – | – | –
9 | 80.8% | 81.4% | 82.4% | – | – | – | CCCCCCCCCCCCCCCC(=O)N[C@@H](CSC1CC(=O)N(CC)C1=O)C(=O)N[C@@H](Cc1ccccc1)C(=O)N[C@@H](CCCNC(=N)N)C(=O)N[C@H](C(=O)N[C@@H](CC(=O)O)C(=O)N[C@@H](CCC(=O)O)C(=O)N[C@@H](CCC(=O)O)C(=O)N[C@@H](Cc1ccccc1)C(=O)N[C@@H](CCC(N)=O)C(=O)N[C@@H](CO)C(=O)N1CCC[C@H]1C(=O)N[C@@H](Cc1ccccc1)C(=O)N[C@@H](C)C(=O)N[C@@H](CO)C(=O)N[C@@H](CCC(N)=O)C(=O)N[C@@H](CO)C(=O)N[C@@H](CCCNC(=N)N)C(=O)NCC(=O)N[C@@H](Cc1ccc(O)cc1)C(=O)N[C@@H](Cc1ccccc1)C(=O)N[C@@H](CC(C)C)C(=O)N[C@@H](Cc1ccccc1)C(=O)N[C@@H](CCCNC(=N)N)C(=O)N1CCC[C@H]1C(=O)N[C@@H](CCCNC(=N)N)C(=O)N[C@@H](CC(N)=O)C(N)=O)C(C)C (stereo partly drawn) [NMU24] (Palmitoyl-C(Succinimide(1-Et,3-yl))FRVDEEFQSPFASQSRGYFLFRPRN-NH2) | – | – | –
10 | – | – | – | 7.2 nM | 12.7 nM | 14.8 nM | Ac-C2FQSPFASQSRGYFLFRPRN-CONH2 ({Ac-C(PEG 40 kDa)}-FQSPFASQSRGYFLFRPRN-NH2; not fully specified; printed as Ac-C2FQSPFASQSRGYFLFRPRN-CONH2) [NMU20, C2 = Cys(PEG)240 kDa] | – | – | –
11 | 89.2% | 100% | 100% | – | – | 1.2 nM | Ac-FRVDEEFQSPFASQSRGYFLFRPRN-NH2 [NMU2] | – | – | –
12 | 100% | 100% | 100% | – | – | 1.2 nM | H-FRVDEEFQSPFASQSRPYFLFRPRN-NH2 [NMU4] | – | – | –
